Common to all, as to assay type: cell-based
The target in test [1] is T1, GLP-1 receptor (Homo sapiens, UniProt P43220). Briefly: HitHunter cAMP assay, GLP-1 receptor. Particulars: for EC50: CHO cells stably expressing human GLP-1 receptor, cAMP accumulation, 30 min, read-out: EC50 GLP-1R; for Emax: CHO cells, cAMP, normalized to maximum signal from GLP-1 (high) and DMSO (low), read-out: Emax GLP-1R. (Cyclic AMP is a second messenger, typically raised through Gs and lowered through Gi signalling.)

The target of test [2] is T2, GIP receptor (Homo sapiens, UniProt P48546).
T2 sequence (P48546 22-466): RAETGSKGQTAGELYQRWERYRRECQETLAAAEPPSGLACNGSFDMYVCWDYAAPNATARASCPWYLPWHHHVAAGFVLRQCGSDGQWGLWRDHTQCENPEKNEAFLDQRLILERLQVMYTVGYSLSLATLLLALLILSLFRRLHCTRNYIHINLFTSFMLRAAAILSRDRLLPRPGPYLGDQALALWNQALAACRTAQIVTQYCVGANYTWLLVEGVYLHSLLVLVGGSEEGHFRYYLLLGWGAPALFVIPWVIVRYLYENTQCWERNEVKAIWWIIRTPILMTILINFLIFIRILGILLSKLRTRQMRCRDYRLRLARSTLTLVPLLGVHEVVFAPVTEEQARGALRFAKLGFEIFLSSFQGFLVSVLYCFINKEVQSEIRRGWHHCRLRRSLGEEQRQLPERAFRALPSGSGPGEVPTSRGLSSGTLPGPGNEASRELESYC
Description: HitHunter cAMP assay, GIP receptor. Particulars: for EC50: CHO cells stably expressing GIP receptor, cAMP accumulation, 30 min, read-out: EC50 GIP-1R; for Emax: CHO cells, cAMP, normalized to maximum signal from GIP (high) and DMSO (low), read-out: Emax GIP-1R.

Test [3] addresses T1, GLP-1 receptor. Briefly: PathHunter β-arrestin assay, GLP-1 receptor. Particulars: β-arrestin-2 recruitment, PathHunter CHO-K1 GLP1R β-Arrestin Cell Line, 90 min at 37° C.; normalized to GLP-1; read-out: GLP-1R β Arrestin EC50. Details: host or cells: PathHunter CHO-K1 GLP1R β-Arrestin Cell Line. In general terms: Recruitment of arrestin is a read-out of receptor activation apart from second messengers.

Test [4] deals with T2, GIP receptor. Description: PathHunter β-arrestin assay, GIP receptor. Particulars: β-arrestin-2 recruitment, PathHunter CHO-K1 GIPR β-Arrestin Cell Line, 90 min at 37° C.; normalized to GIP; read-out: GIPR β Arrestin EC50. Also on record: host or cells: PathHunter CHO-K1 GIPR β-Arrestin Cell Line.

*1 amine or outer side, *2 acyl side, *3 side chain or, on linkers, in order; H or OH if unused. Where a SMILES comes first, the peptide text is derived from it. Side-chain parts run from the residue outwards. [ ]: non-standard residue; d: D form. The star is where a group is joined. Isobutyryl(2-(3-CN-5-F-Ph)) = CC(C)(C(=O)*)c1cc(F)cc(C#N)c1; C20 diacid = O=C(O)CCCCCCCCCCCCCCCCCCC(=O)*; NH(4-OCF3-phenyl) = FC(F)(F)Oc1ccc(N*)cc1; X52 = CC(C)(C(=O)*)c1cc(F)cc(OC(F)(F)F)c1; γGlu = O=C(O)[C@H](CCC(=O)[*:2])N[*:1]; X8 = O=C(CCNCc1cc(O)cc(F)c1)*; d(β3hD) = NC(CC(=O)O)CC(=O)O; Dap = NC[C@H](N)C(=O)O; AEEA = NCCOCCOCC(=O)O; Aib = CC(C)(N)C(=O)O; CO = O=C([*:1])[*:2]; GABA = NCCCC(=O)O; βAla = NCCC(=O)O

Broadly, the EC50 is the concentration at which the effect is half-maximal. In general, Emax refers to the size of the effect at its maximum, as opposed to the concentration needed.

T1 sequence (P43220 24-463): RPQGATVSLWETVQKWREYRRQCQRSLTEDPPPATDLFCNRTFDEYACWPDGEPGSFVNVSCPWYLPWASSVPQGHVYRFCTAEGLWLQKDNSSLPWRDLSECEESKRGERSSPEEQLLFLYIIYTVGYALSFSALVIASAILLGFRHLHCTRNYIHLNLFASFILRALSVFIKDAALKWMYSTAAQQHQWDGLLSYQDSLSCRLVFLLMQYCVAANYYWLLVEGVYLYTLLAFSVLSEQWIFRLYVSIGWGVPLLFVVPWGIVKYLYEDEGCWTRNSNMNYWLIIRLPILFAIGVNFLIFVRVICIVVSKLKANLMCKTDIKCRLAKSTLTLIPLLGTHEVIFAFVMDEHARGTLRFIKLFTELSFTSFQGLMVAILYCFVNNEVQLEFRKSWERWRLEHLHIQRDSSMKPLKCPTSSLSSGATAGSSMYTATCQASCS

As for `CC[C@H](C)[C@H](NC(=O)[C@H](CC(C)C)NC(=O)[C@H](Cc1c[nH]c2ccccc12)NC(=O)[C@H](CCC(N)=O)NC(=O)[C@@H](NC(=O)[C@H](Cc1ccccc1)NC(=O)[C@H](C)NC(=O)[C@H](CCCCNC(=O)COCCOCCNC(=O)COCCOCCNC(=O)CC[C@H](NC(=O)CCCCCCCCCCCCCCCCCCC(=O)O)C(=O)O)NC(=O)[C@H](CCC(N)=O)NC(=O)[C@H](C)NC(=O)[C@@H](NC(=O)[C@H](CCCCN)NC(=O)[C@H](CC(=O)O)NC(=O)[C@H](CC(C)C)NC(=O)C(C)(C)NC(=O)[C@@H](NC(=O)[C@H](CO)NC(=O)[C@H](Cc1ccc(O)cc1)NC(=O)[C@H](CC(=O)O)NC(=O)[C@H](CO)NC(=O)[C@@H](NC(=O)[C@H](Cc1ccccc1)NC(=O)[C@@H](NC(=O)CNC(=O)C[C@@H](CC(=O)O)NC(=O)CCNC(=O)C(C)(C)c1cc(F)cc(C#N)c1)[C@@H](C)O)[C@@H](C)O)[C@@H](C)CC)[C@@H](C)CC)C(C)C)C(=O)N[C@@H](C)C(=O)NCC(=O)NCC(=O)N1CCC[C@H]1C(=O)N[C@@H](CO)C(=O)N[C@@H](CO)C(=O)NCC(=O)N[C@@H](C)C(=O)N1CCC[C@H]1C(=O)N1CCC[C@H]1C(=O)N1CCC[C@H]1C(=O)N[C@@H](CO)C(N)=O` [Compound 104] ({Isobutyryl(2-(3-CN-5-F-Ph))-βAla}-[d(β3hD)]GTFTSDYSI[Aib]LDKIAQK([AEEA-AEEA-γGlu-C20 diacid])AFVQWLIAGGPSSGAPPPS-NH2), the EC50 in test [1] was 100 to 1000 nM; in test [2], 100 to 1000 nM; in test [3], greater than 1000 nM; in test [4], greater than 1000 nM. Also, the maximum response (Emax) was determined as 60% in test [1] and 66% in test [2].
On to `CC[C@H](C)[C@H](NC(=O)[C@H](CC(C)C)NC(=O)[C@H](Cc1c[nH]c2ccccc12)NC(=O)[C@H](CCC(N)=O)NC(=O)[C@@H](NC(=O)[C@H](Cc1ccccc1)NC(=O)[C@H](C)NC(=O)[C@H](CCCCNC(=O)COCCOCCNC(=O)COCCOCCNC(=O)CC[C@H](NC(=O)CCCCCCCCCCCCCCCCCCC(=O)O)C(=O)O)NC(=O)[C@H](CCC(N)=O)NC(=O)[C@H](C)NC(=O)[C@@H](NC(=O)[C@H](CCCCN)NC(=O)[C@H](CC(=O)O)NC(=O)[C@H](CC(C)C)NC(=O)C(C)(C)NC(=O)[C@@H](NC(=O)[C@H](CO)NC(=O)[C@H](Cc1ccc(O)cc1)NC(=O)[C@H](CC(=O)O)NC(=O)[C@H](CO)NC(=O)[C@@H](NC(=O)[C@H](Cc1ccccc1)NC(=O)[C@@H](NC(=O)CNC(=O)[C@H](CCC(=O)O)NC(=O)CCNC(=O)C(C)(C)c1cc(F)cc(OC(F)(F)F)c1)[C@@H](C)O)[C@@H](C)O)[C@@H](C)CC)[C@@H](C)CC)C(C)C)C(=O)N[C@@H](C)C(=O)NCC(=O)NCC(=O)N1CCC[C@H]1C(=O)N[C@@H](CO)C(=O)N[C@@H](CO)C(=O)NCC(=O)N[C@@H](C)C(=O)N1CCC[C@H]1C(=O)N1CCC[C@H]1C(=O)N1CCC[C@H]1C(=O)N[C@@H](CO)C(N)=O` [Compound 112] ({X52-βAla}-EGTFTSDYSI[Aib]LDKIAQK([AEEA-AEEA-γGlu-C20 diacid])AFVQWLIAGGPSSGAPPPS-NH2), for which the EC50 in test [1] was 1 to 10 nM; in test [2] it was 100 to 1000 nM; in test [3], greater than 1000 nM; in test [4], greater than 1000 nM. The results for the Emax in test [1] and in test [2] were 115% and 99%, respectively.
Consider `CC[C@H](C)[C@H](NC(=O)[C@H](CC(C)C)NC(=O)[C@H](Cc1c[nH]c2ccccc12)NC(=O)[C@H](CCC(N)=O)NC(=O)[C@@H](NC(=O)[C@H](Cc1ccccc1)NC(=O)[C@H](C)NC(=O)[C@H](CCCCNC(=O)COCCOCCNC(=O)COCCOCCNC(=O)CC[C@H](NC(=O)CCCCCCCCCCCCCCCCCCC(=O)O)C(=O)O)NC(=O)[C@H](CCC(N)=O)NC(=O)[C@H](C)NC(=O)[C@@H](NC(=O)[C@H](CCCCN)NC(=O)[C@H](CC(=O)O)NC(=O)[C@H](CC(C)C)NC(=O)C(C)(C)NC(=O)[C@@H](NC(=O)[C@H](CO)NC(=O)[C@H](Cc1ccc(O)cc1)NC(=O)[C@H](CC(=O)O)NC(=O)[C@H](CO)NC(=O)[C@@H](NC(=O)[C@H](Cc1ccccc1)NC(=O)[C@@H](NC(=O)CNC(=O)[C@H](CCC(=O)O)NC(=O)[C@@H](N)CNC(=O)C(C)(C)c1cc(F)cc(C#N)c1)[C@@H](C)O)[C@@H](C)O)[C@@H](C)CC)[C@@H](C)CC)C(C)C)C(=O)N[C@@H](C)C(=O)NCC(=O)NCC(=O)N1CCC[C@H]1C(=O)N[C@@H](CO)C(=O)N[C@@H](CO)C(=O)NCC(=O)N[C@@H](C)C(=O)N1CCC[C@H]1C(=O)N1CCC[C@H]1C(=O)N1CCC[C@H]1C(=O)N[C@@H](CO)C(N)=O` [Compound 191] (H-[Dap](Isobutyryl(2-(3-CN-5-F-Ph)))EGTFTSDYSI[Aib]LDKIAQK([AEEA-AEEA-γGlu-C20 diacid])AFVQWLIAGGPSSGAPPPS-NH2), for which the EC50 was 1 to 10 nM in test [1], 10 to 100 nM in test [2], greater than 1000 nM in test [3] and greater than 1000 nM in test [4]. In addition, the results for the Emax in test [1] and in test [2] were 92% and 98%, respectively.
For the compound `CC[C@H](C)[C@H](NC(=O)[C@H](CC(C)C)NC(=O)[C@H](Cc1c[nH]c2ccccc12)NC(=O)[C@H](CCC(N)=O)NC(=O)[C@@H](NC(=O)[C@H](Cc1ccccc1)NC(=O)[C@H](C)NC(=O)[C@H](CCCCNC(=O)COCCOCCNC(=O)COCCOCCNC(=O)CC[C@H](NC(=O)CCCCCCCCCCCCCCCCCCC(=O)O)C(=O)O)NC(=O)[C@H](CCC(N)=O)NC(=O)[C@H](C)NC(=O)[C@@H](NC(=O)[C@H](CCCCN)NC(=O)[C@H](CC(=O)O)NC(=O)[C@H](CC(C)C)NC(=O)C(C)(C)NC(=O)[C@@H](NC(=O)[C@H](CO)NC(=O)[C@H](Cc1ccc(O)cc1)NC(=O)[C@H](CC(=O)O)NC(=O)[C@H](CO)NC(=O)[C@@H](NC(=O)[C@H](Cc1ccccc1)NC(=O)[C@@H](NC(=O)CNC(=O)[C@H](CCC(=O)O)NC(=O)CCNCc1cc(O)cc(F)c1)[C@@H](C)O)[C@@H](C)O)[C@@H](C)CC)[C@@H](C)CC)C(C)C)C(=O)N[C@@H](C)C(=O)NCC(=O)NCC(=O)N1CCC[C@H]1C(=O)N[C@@H](CO)C(=O)N[C@@H](CO)C(=O)NCC(=O)N[C@@H](C)C(=O)N1CCC[C@H]1C(=O)N1CCC[C@H]1C(=O)N1CCC[C@H]1C(=O)N[C@@H](CO)C(N)=O` [Compound 277] (X8-EGTFTSDYSI[Aib]LDKIAQK([AEEA-AEEA-γGlu-C20 diacid])AFVQWLIAGGPSSGAPPPS-NH2), the EC50 in test [1] was 1 to 10 nM; in test [2], 100 to 1000 nM; in test [3], greater than 1000 nM; in test [4], greater than 1000 nM. Further, the values for the Emax in test [1] and in test [2] were 89% and 6%, respectively.
Consider `CC[C@H](C)[C@H](NC(=O)[C@H](CC(C)C)NC(=O)[C@H](Cc1c[nH]c2ccccc12)NC(=O)[C@H](CCC(N)=O)NC(=O)[C@@H](NC(=O)[C@H](Cc1ccccc1)NC(=O)[C@H](C)NC(=O)[C@H](CCCCNC(=O)COCCOCCNC(=O)COCCOCCNC(=O)CC[C@H](NC(=O)CCCCCCCCCCCCCCCCCCC(=O)O)C(=O)O)NC(=O)[C@H](CCC(N)=O)NC(=O)[C@H](C)NC(=O)[C@@H](NC(=O)[C@H](CCCCN)NC(=O)[C@H](CC(=O)O)NC(=O)[C@H](CC(C)C)NC(=O)C(C)(C)NC(=O)[C@@H](NC(=O)[C@H](CO)NC(=O)[C@H](Cc1ccc(O)cc1)NC(=O)[C@H](CC(=O)O)NC(=O)[C@H](CO)NC(=O)[C@@H](NC(=O)[C@H](Cc1ccccc1)NC(=O)[C@@H](NC(=O)CNC(=O)[C@H](CCC(=O)O)NC(=O)CCCNC(=O)CNC(=O)Nc1ccc(OC(F)(F)F)cc1)[C@@H](C)O)[C@@H](C)O)[C@@H](C)CC)[C@@H](C)CC)C(C)C)C(=O)N[C@@H](C)C(=O)NCC(=O)NCC(=O)N1CCC[C@H]1C(=O)N[C@@H](CO)C(=O)N[C@@H](CO)C(=O)NCC(=O)N[C@@H](C)C(=O)N1CCC[C@H]1C(=O)N1CCC[C@H]1C(=O)N1CCC[C@H]1C(=O)N[C@@H](CO)C(N)=O` [Compound 269] ({NH(4-OCF3-phenyl)-CO}-G[GABA]EGTFTSDYSI[Aib]LDKIAQK([AEEA-AEEA-γGlu-C20 diacid])AFVQWLIAGGPSSGAPPPS-NH2), for which the EC50 in test [1] was 1 to 10 nM; in test [2], 1 to 10 nM; in test [3], greater than 1000 nM; in test [4], less than 1000 nM. Moreover, the Emax came out at 96% in test [1] and 103% in test [2].

The values above are taken from US12281149B2, “Modulators of G-protein coupled receptors” (priority 2021, dated 2025).
